Patent US20240019437A1, “METHODS FOR THE DIAGNOSIS AND THE TREATMENT OF GRAFT-VERSUS-HOST DISEASE” (INSERM (INSTITUT NATIONAL DE LA SANTÉ ET DE LA RECHERCHE …, priority 2020, published 2024)

Biological target: T1, CD73 (Homo sapiens, UniProt P21589)
T1 construct: Eight different CD73-expressing DP8α TREG clones were all separately co-cultured; endogenous in cells; host or cells: CD73-expressing DP8α Treg clones (human T cell clones)
T1 sequence (P21589 27-549): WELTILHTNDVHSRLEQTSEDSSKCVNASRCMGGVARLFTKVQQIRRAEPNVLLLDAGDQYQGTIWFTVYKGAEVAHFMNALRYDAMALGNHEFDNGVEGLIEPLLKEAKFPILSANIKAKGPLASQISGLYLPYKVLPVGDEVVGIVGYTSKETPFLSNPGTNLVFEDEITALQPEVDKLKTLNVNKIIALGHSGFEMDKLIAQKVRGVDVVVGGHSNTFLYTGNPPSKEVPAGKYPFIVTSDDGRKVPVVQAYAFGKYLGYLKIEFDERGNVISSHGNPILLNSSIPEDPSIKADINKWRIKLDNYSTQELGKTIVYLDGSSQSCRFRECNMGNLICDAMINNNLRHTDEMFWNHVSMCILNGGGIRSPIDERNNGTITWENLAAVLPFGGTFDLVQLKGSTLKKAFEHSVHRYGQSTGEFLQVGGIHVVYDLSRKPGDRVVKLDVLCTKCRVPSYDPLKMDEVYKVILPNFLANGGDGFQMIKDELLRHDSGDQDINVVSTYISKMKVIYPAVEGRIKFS
Assay: Co-culture of CD73-expressing DP8α TREG clones with VPD-stained CD4+ T cells, with or without CD73 inhibitors; proliferation as percentage of VPD LOW CD4+ T cells
Assay type: cell-based
Details: 1:1 co-culture, proliferation measured 6 days later; three concentrations per inhibitor; compared to no treatment

Nc1ncnc2c1ncn2[C@@H]1O[C@H](COP(=O)([O-])CP(=O)(O)O)[C@@H](O)[C@H]1O.[Na+] [Adenosine 5′-(α,β-methylene)diphosphate sodium salt]
Effect on suppressive function of CD73-expressing DP8α TREG clones (inhibition of CD4+ T cell proliferation): drastically impaired the suppressive function
